Assay results published in publication PMC8069799, “Alpha-Glucosidase Inhibitory Diterpenes from Euphorbia antiquorum Growing in Vietnam” (Molecules, 2021).
pIC50, pKi: −log10 of the molar value.

Tests used:
[1] = biological target: Saccharomyces cerevisiae α-glucosidase (E.C 3.2.1.20); assay: Alpha-glucosidase inhibition assay; format: biochemical; details: 0.2 U/mL enzyme, 5.0 mM pNPG, pH 6.9 sodium phosphate buffer, 37 °C, triplicate; read-out: Alpha-glucosidase inhibitory activity IC50
Protocol: The alpha-glucosidase (0.2 U/mL) and substrate (5.0 mM pNPG) were dissolved in 100 mM pH 6.9 sodium phosphate buffer. The inhibitor (50 µL) was preincubated with alpha-glucosidase at 37 °C for 20 min, and then the substrate (40 µL) was added to the reaction mixture. The enzymatic reaction was carried out at 37 °C for 20 min and stopped by adding 0.2 M Na2CO3 (130 μL). Enzymatic activity was quantified by measuring absorbance at 405 nm (CLARIOstar plus, BMG LABTECH, Ortenberg, Germany). All samples were analyzed in triplicate at five different concentrations around the IC50 values, and the mean values were retained. The inhibition percentage (%) was calculated by the following equation:Inhibition (%) = [1 − (Asample/Acontrol)] × 100.(1)

[2] = tested on: alpha-glucosidase; assay: Inhibitory type assay of 3 on alpha-glucosidase (Lineweaver–Burk plots, secondary plots); format: biochemical, yeast
Protocol: In order to examine the inhibition mechanism of 3, their activity was measured at the different concentration of 4-nitrophenyl […] (pNPG).
The mechanisms of inhibition of alpha-glucosidase by 3 were determined by Lineweaver–Burk plots (Microsoft Excel 2010, Redmond, WA, USA), using methods similar to those reported in the literature. Enzyme inhibition due to various concentrations of the 3 were evaluated by monitoring the effects of different concentrations of the substrate. For Lineweaver–Burk double reciprocal plots 1/enzyme velocity (1/V) vs. 1/substrate concentration (1/[S]), the inhibition type was determined using various concentrations of pNPG (1 mM, 2 mM, and 4 mM) as a substrate in the presence of different concentrations of the test compound (0, 13.8, 27.7, and 55.5 µM). The experiments were carried out in three replicates. The mixtures were incubated at 37 °C and the optical density was measured at 405 nm every 1 min for 30 min with the Clariostar Labtech microplate reader (Ortenberg, Germany). Optimal concentrations of the tested compound were chosen based on the IC50 value. The inhibition constants were obtained graphically from secondary plots (Microsoft Excel 2010, Redmond, WA, USA).

SMILES | pIC50 [1] | inhibition type ([2]; Lineweaver–Burk plots, Vmax decreased while Km remained constant) | pKi ([2]; pNPG 1, 2, 4 mM, inhibitor 0, 13.8, 27.7, 55.5 µM, secondary plot of slope vs. inhibitor concentration, read-out: inhibition constant (Ki))
CC1(C)C(O)CC(O)C2(C)C3CC4CCC3(CCC12)CC4(O)CO (single isomer, unassigned; ent-1) [Compound 1, ent-1α,3α,16β,17-tetrahydroxyatisane] | 3.90 | – | –
CC(=O)O[C@H]1CC[C@@]2(C)C3C[C@@H]4CC[C@@]3(CC[C@@H]2C1(C)C)C[C@@]4(O)CO (single isomer, unassigned; ent-3) [Compound 4, ent-3α-acetoxy-16β,17-dihydroxyatisane] | 3.99 | – | –
CC(=O)OC1C(C)C(=O)C23CC(C)C(O)C2(C=C(C)C(O)C(O)C2C1C2(C)C)O3 (centres unmarked) [Compound 7, ingol 12-acetate] | 3.94 | – | –

Further lines, results first:

pIC50 [1] | inhibition type ([2]; Lineweaver–Burk plots, Vmax decreased while Km remained constant) | pKi ([2]; pNPG 1, 2, 4 mM, inhibitor 0, 13.8, 27.7, 55.5 µM, secondary plot of slope vs. inhibitor concentration, read-out: inhibition constant (Ki)) | SMILES
3.88 | – | – | CCOC(=O)CC[C@]1(C)[C@@H](C(C)(C)O)CC[C@@]23CC[C@@H](C[C@H]21)[C@](O)(CO)C3 (single isomer, unassigned; ent-3) [Compound 2, ethyl ent-3,4-seco-4,16β,17-trihydroxyatisane-3-carboxylate]
4.16 | noncompetitive inhibitor | 4.18 | CC1(C)OC[C@@]2(C[C@]34CC[C@H]2C[C@H]3[C@]2(C)CCC(=O)C(C)(C)[C@H]2CC4)O1 [Compound 3, ent-atisane-3-oxo-16β,17-acetonide]
3.81 | – | – | CC1(C)C(=O)CC[C@@]2(C)[C@H]1CC[C@@]13C[C@H](CC[C@@H]12)[C@@](O)(CO)C3 [Compound 6, calliterpenone]
